In US10039845B2, “Labeled inhibitors of prostate specific membrane antigen (PSMA) biological evaluation, and use of imaging agents” (THE JOHNS HOPKINS UNIVERSITY, priority 2007, dated 2018):

Experiments:
LNCaP (PSMA+) tumor = assay: In vivo binding specificity (blocking) study, SPECT-CT; design: species or system mice; conditions: LNCaP tumor bearing animal, PMPA 50 mg/kg (1 mg), images 30-60 min postinjection
Procedure: SPECT-CT imaging was then performed as described above, with both animals on the scanner gantry.

PSMA = target: T1, PSMA (Homo sapiens, UniProt Q04609); assay: NAALADase assay (NAAG hydrolysis, LNCaP cell extracts); assay type: biochemical
T1 construct: LNCaP cell extracts were prepared by sonication in NAALADase buffer; endogenous in cells; host or cells: LNCaP cell extract (sonicated in 50 mM Tris pH 7.4, 0.5% Triton X-100)
T1 sequence (Q04609 whole entry): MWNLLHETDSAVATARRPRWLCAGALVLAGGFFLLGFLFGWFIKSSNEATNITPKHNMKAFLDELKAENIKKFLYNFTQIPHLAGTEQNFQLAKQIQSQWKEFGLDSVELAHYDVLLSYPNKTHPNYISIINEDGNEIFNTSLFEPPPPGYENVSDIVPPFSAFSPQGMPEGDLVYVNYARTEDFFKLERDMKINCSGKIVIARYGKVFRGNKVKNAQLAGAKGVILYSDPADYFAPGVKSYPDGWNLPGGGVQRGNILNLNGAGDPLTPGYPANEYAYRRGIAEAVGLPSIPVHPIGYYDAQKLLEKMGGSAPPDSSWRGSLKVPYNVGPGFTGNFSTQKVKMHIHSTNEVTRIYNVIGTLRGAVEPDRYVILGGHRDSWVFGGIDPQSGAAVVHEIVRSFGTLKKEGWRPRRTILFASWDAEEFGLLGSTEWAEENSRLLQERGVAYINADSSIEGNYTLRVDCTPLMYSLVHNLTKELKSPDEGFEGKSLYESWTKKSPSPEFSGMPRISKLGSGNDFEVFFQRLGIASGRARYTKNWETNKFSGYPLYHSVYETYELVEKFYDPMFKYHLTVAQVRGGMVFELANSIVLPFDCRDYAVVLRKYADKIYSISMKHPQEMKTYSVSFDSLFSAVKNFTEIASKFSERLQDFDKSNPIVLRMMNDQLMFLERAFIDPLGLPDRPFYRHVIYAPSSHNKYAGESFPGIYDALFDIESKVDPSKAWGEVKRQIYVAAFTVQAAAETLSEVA
Procedure: The relative binding affinities of L1-L7 and ReL1-ReL7, were determined using the N-acetylated-α-linked acidic dipeptidase (NAALADase) assay as previously described.
NAAG hydrolysis was performed essentially as described previously (Robinson, M. B.; et al. J Biol Chem 1987, 262, 14498-14506; Lupold, S. E.; et al. Cancer Res 2002, 62, 4029-4033.). In short, LNCaP cell extracts were prepared by sonication in NAALADase buffer [50 mM Tris (pH 7.4) and 0.5% Triton X-100]. Cell lysates were incubated with or without inhibitor at 37° C. for 10 minutes. Following the incubation the radiolabeled substrate N-acetyl-L-aspartyl-L-(3,4-^3H)glutamate (NEN Life Science Products, Boston, Mass.) was added to a final concentration of 30 nM at 37° C. for 10-15 min. The reaction was stopped by the addition of an equal volume of ice-cold 100 mM sodium phosphate and 2 mM EDTA. Products were partitioned by AG 1-X8 formate resin (Bio-Rad Laboratories) anion exchange chromatography, eluted with 1 M sodium formate, and quantified by liquid scintillation counting. […] Assays were performed in triplicate with the entire inhibition study being repeated at least once to confirm affinity and mode of inhibition. Data were collected during linear phase of hydrolysis (i.e., <20% cleavage of total substrate). Enzyme inhibitory constants (Ki values) were generated using the Cheng-Prusoff conversion (Cheng, Y.; Prusoff, W. H. Biochem Pharmcol 1973, 22, 3099-3108).

PSMA+ PC3 PIP cells = assay: In vitro fluorescence microscopy in PC3 PIP and PC3 flu cells; assay type: cell-based, human; conditions: excitation 494 nm, emission 628 nm, 1 h incubation
Procedure: Coordination of the bisquinoline moiety of L2 with Re(CO)3 renders this complex fluorescent. Accordingly, microscopy was performed using ReL2 in live cells (FIG. 2). […] The mechanism of internalization of PSMA has been studied previously, however only antibodies and antibody conjugates have been used, rather than small molecules (Rajasekaran, S. A.; et al. Mol Biol Cell 2003, 14, 4835-4845; Moffatt, S.; et al. Gene Ther 2006, 13, 761-772).
Following fresh preparation of ReL2, 10,000 PC3 PIP and PC3 flu cells were seeded separately into each of four wells of a Lab-Tek II 8-well chamber slide (Fisher Scientific). The cells were cultured as described above and were allowed to attach to the bottom of the wells overnight at 37° C. in 5% CO2 in air. […] The cells were then returned to the incubator for one hour to enable binding. Each well was then carefully washed by removing the supernatant followed by addition of warm culture media for 30 seconds. The wash media was then removed and added to the contents of the well chambers. Dako Cytomation mounting medium was then applied and a glass coverslip was added. The mounting medium was allowed to dry at ambient temperature for 20 min prior to storage of the slide at 4° C. overnight. The cells were then viewed using an Olympus BX61 fluorescence microscope equipped with a Semrock DAPI/FITC/Texas Red triple filter cube.

SMILES | blockade of [^99mTc]L1 binding to tumor and renal cortex (LNCaP (PSMA+) tumor) | Ki (PSMA; LNCaP cell extracts, Cheng-Prusoff conversion, read-out: Ki (PSMA inhibitory activity)) [nM] | fold higher PSMA inhibitory activity than ReL1 (PSMA; relative to ReL1) [fold] | fluorescent signal in live cells (internalization) (PSMA+ PC3 PIP cells)
O=C(O)CCC(CP(=O)(O)O)C(=O)O (stereo not shown) [PMPA, 2-(phosphonomethyl)pentanedioic acid] | capable of eliminating binding of [^99mTc]L1 | – | – | –
O=C(O)CCC(NC(=O)NC(CCCCNC(=O)CCCCCCC(=O)NC(CCCCN(Cc1ccc2ccccc2n1)Cc1ccc2ccccc2n1)C(=O)O)C(=O)O)C(=O)O.[Br-].[C-]#[O+].[C-]#[O+].[C-]#[O+].[Re+] (stereo not drawn) [ReL2, Tricarbonyl(2-[3-(5-{7-[5-(bis-quinolin-2-ylmethyl-amino)-1-carboxy-pentylcarbamoyl]-heptanoylamino}-1-carboxy-pentyl)-ureido]-pentanedioic acid) rhenium bromide] | – | 0.5 | 20 | weak but observable fluorescent signal from within the PSMA+ PC3 PIP cells
